Values joined by “and” are separate entries in the source; they are usually repeats but may differ in a detail not shown here. Equal entries are not always repeated.
Assays:
Assay in all cases: AHAS product feedback inhibition assay (leucine, isoleucine, valine)
Assay type in all cases: biochemical, Camelina sativa
Details in all cases: for % activity (AHAS activity as % of control): control 100 mM pyruvate, no added amino acid, per experiment (Exp. 1-3); for % activity (AHAS activity as % of control), means: means of 3 experiments
[1] = test system: AHAS, enzyme extract of 14CS0851-01-14
Protocol: (§1) Briefly, for each of the three comparators, leaf and stem (petiole) material was bulk-harvested at the 3-4 leaf stage from at least 30 plantlets, snap-frozen in liquid nitrogen, and stored at −80° C. The AHAS in vitro assay was conducted according to the method of Singh et al (1988), with modifications by Yu (2010) and Rustgi (2014). For each comparator, 4 grams of frozen material were ground to a fine powder with a mortar and pestle in liquid nitrogen and homogenized in 1 volume of cold extraction buffer containing 100 mM potassium phosphate buffer (pH7.5), 10 mM sodium pyruvate, 5 mM MgCl2, 100 μM flavin adenine dinucleotide (FAD), and 10% glycerol. Four 2-mL microcentrifuge tubes were used for each comparator. The homogenate was centrifuged at 13,000 rpm for 10 min at 4° C., supernatant collected and re-centrifuged for an additional 10 minutes under the same conditions. For each tube, 1 mL of supernatant was pipetted into a new 2-mL microcentrifuge tube, and protein was precipitated by the addition of 1 mL of saturated ammonium sulfate. The solution was mixed well by vortex and allowed to stand on ice for 20 minutes, then centrifuged at 13,000 rpm at 4° C. The protein pellet was resuspended in 300 μL of reaction buffer containing 50 mM potassium phosphate buffer (pH7.5), 100 mM sodium pyruvate, 10 mM MgCl2, 1 mM EDTA, 10 μM FAD, 100 mM NaCl, and 1 mM thiamine pyrophosphate. Tubes of each comparator were combined, mixed well, kept on ice and immediately used in the AHAS activity and feedback inhibition assays.
(§2) Total protein concentration of the crude extract was determined by the Bradford method (Bradford, 1976). All assays were conducted using 300 μg of total protein each.
(§3) The feedback inhibition assay was performed by combining equal amounts of extract and amino acids leucine, isoleucine, or valine, respectively, in concentrations of 0.1 mM, 1 mM, 10 mM and 100 mM, according to Yu et al. (2010). The reaction mixture contained 50 μL enzyme extract and 50 μL 100 mM sodium pyruvate and inhibitor amino acid. The reaction was incubated at 37° C. for 60 minutes, then stopped and acetolactate converted to acetoin with the addition of 20 μL of 6 N H2SO4 and incubated at 60° C. for 15 minutes. A separate background “blank” was included for each sample group by adding 20 μL of 6 N H2SO4 prior to the addition of the enzyme extracts. Then, 95 μL of 0.55% w/v creatine solution and 95 μL of α-naphthol solution (5.5% w/v in 5 N NaOH) were added and the mixture incubated at 60° C. for a further 15 minutes. After cooling to room temperature for 15 minutes, enzyme activity was determined colorimetrically by reading the absorbance at 530 nm. Three independent experiments were conducted. Experiment 1 and 2 each contained 2 technical replicates, while experiment 3 included 3 technical replicates.

[2] = test system: AHAS, enzyme extract of MIDAS™
Protocol: as §1, §2, §3

[3] = test system: AHAS, enzyme extract of SRS 934
Protocol: as §1, §2, §3

Row | % activity (AHAS activity as % of control) ([1]; 1 mM final concentration) | % activity (AHAS activity as % of control), means ([1]; 1 mM final concentration) [%] | % activity (AHAS activity as % of control) ([1]; 10 mM final concentration) | % activity (AHAS activity as % of control), means ([1]; 10 mM final concentration) [%] | % activity (AHAS activity as % of control) ([1]; 100 mM final concentration) | % activity (AHAS activity as % of control), means ([1]; 100 mM final concentration) [%] | % activity (AHAS activity as % of control) ([2]; 1 mM final concentration) | % activity (AHAS activity as % of control), means ([2]; 1 mM final concentration) [%] | % activity (AHAS activity as % of control) ([2]; 10 mM final concentration) | % activity (AHAS activity as % of control), means ([2]; 10 mM final concentration) [%] | % activity (AHAS activity as % of control) ([2]; 100 mM final concentration) | % activity (AHAS activity as % of control), means ([2]; 100 mM final concentration) [%] | % activity (AHAS activity as % of control) ([3]; 1 mM final concentration) | % activity (AHAS activity as % of control), means ([3]; 1 mM final concentration) [%] | % activity (AHAS activity as % of control) ([3]; 10 mM final concentration) | % activity (AHAS activity as % of control), means ([3]; 10 mM final concentration) [%] | % activity (AHAS activity as % of control) ([3]; 100 mM final concentration) | % activity (AHAS activity as % of control), means ([3]; 100 mM final concentration) [%] | Compound
1 | 48.8% and 63.7% and 57.9% | 56.8 | 41.6% and 58.1% and 39.5% | 46.4 | 34.2% and 52.1% | 40.2 | 50.4% and 63.2% and 45.2% | 52.9 | 39.8% and 58.2% and 39.6% | 45.9 | 33.2% and 53.3% and 38.1% | 41.6 | 51.5% and 83.5% and 45.2% | 60.1 | 45.1% and 70.4% and 43.0% | 52.8 | 37.2% and 59.1% and 40.6% | 45.7 | CC(C)C[C@H](N)C(=O)O [Leu]
2 | 51.0% and 49.1% and 88.5% | 62.8 | 46.9% and 45.0% and 76.1% | 56.0 | 35.5% and 34.8% and 66.2% | 45.5 | 55.6% and 49.8% and 71.2% | 58.9 | 48.0% and 47.5% and 67.0% | 54.2 | 40.7% and 37.8% and 58.2% | 45.6 | 58.3% and 47.9% and 78.7% | 61.7 | 46.5% and 47.0% and 77.8% | 57.1 | 41.0% and 35.4% and 61.7% | 46.1 | CC(C)[C@H](N)C(=O)O [Val]
